Test results as given in the supplement of paper PMC10733146.

What was measured:
Experiment in all cases: viability relative to DMSO control (fraction); higher = less drug effect (more viable cells)
Details in all cases: 48 h
[1] = tested on: primary T-PLL patient cells (S008)
Outline: (§1)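 In 384-well plates with compounds pre-plated at five concentrations (one well per concentration), primary mononuclear tumour cells were plated at 4 × 10^4 cells per well. The cells came from blood or bone marrow by Ficoll isolation or from processed lymph node, and were used fresh or cryopreserved. Culture ran for 48 h at 37 °C and 5% CO2 in RPMI-1640 containing penicillin/streptomycin, L-glutamine and human serum. Viability was read as CellTiter-Glo luminescence, normalised to the median of 16 inner DMSO wells.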

[2] = tested on: primary AML patient cells (S055)
Outline: as §1

[3] = tested on: primary AML patient cells (S091)
Outline: as §1

[4] = tested on: primary AML patient cells (S019)
Outline: as §1

[5] = tested on: primary MCL patient cells (S041)
Outline: as §1

[6] = tested on: primary DLBCL patient cells (S082)
Outline: as §1

[7] = tested on: primary AML patient cells (S037)
Outline: as §1

[8] = tested on: primary AML patient cells (S002)
Outline: as §1

[9] = tested on: primary AML patient cells (S025)
Outline: as §1

[10] = tested on: primary AML patient cells (S071)
Outline: as §1

[11] = tested on: primary AML patient cells (S089)
Outline: as §1

[12] = tested on: primary AML patient cells (S009)
Outline: as §1

[13] = tested on: primary AML patient cells (S072)
Outline: as §1

[14] = tested on: primary AML patient cells (S079)
Outline: as §1

CCc1nc(C(N)=O)c(Nc2ccc(N3CCC(N4CCN(C)CC4)CC3)c(OC)c2)nc1NC1CCOCC1 [Gilteritinib]
viability ([1]; 0.024 µM): 0.952
viability ([1]; 0.12 µM): 0.909
viability ([1]; 0.6 µM): 0.886
viability ([1]; 3 µM): 0.787
viability ([1]; 15 µM): 0.935
viability ([2]; 0.024 µM): 1.04
viability ([2]; 0.12 µM): 1.03
viability ([2]; 0.6 µM): 0.573
viability ([2]; 3 µM): 0.638
viability ([2]; 15 µM): 0.821
viability ([3]; 0.024 µM): 0.859
viability ([3]; 0.12 µM): 0.734
viability ([3]; 0.6 µM): 0.238
viability ([3]; 3 µM): 0.122
viability ([3]; 15 µM): 0.0937
viability ([4]; 0.024 µM): 1.12
viability ([4]; 0.12 µM): 1.04
viability ([4]; 0.6 µM): 0.76
viability ([4]; 3 µM): 0.818
viability ([4]; 15 µM): 0.771
viability ([5]; 0.024 µM): 0.934
viability ([5]; 0.12 µM): 0.882
viability ([5]; 0.6 µM): 0.705
viability ([5]; 3 µM): 0.647
viability ([5]; 15 µM): 0.406
viability ([6]; 0.024 µM): 1.14
viability ([6]; 0.12 µM): 0.761
viability ([6]; 0.6 µM): 0.409
viability ([6]; 3 µM): 0.459
viability ([6]; 15 µM): 0.476
viability ([7]; 0.024 µM): 1.06
viability ([7]; 0.12 µM): 1.02
viability ([7]; 0.6 µM): 0.875
viability ([7]; 3 µM): 0.9
viability ([7]; 15 µM): 0.738
viability ([8]; 0.024 µM): 1.13
viability ([8]; 0.12 µM): 1.01
viability ([8]; 0.6 µM): 0.766
viability ([8]; 3 µM): 0.592
viability ([8]; 15 µM): 0.456
viability ([9]; 0.024 µM): 0.888
viability ([9]; 0.12 µM): 0.862
viability ([9]; 0.6 µM): 0.751
viability ([9]; 3 µM): 0.791
viability ([9]; 15 µM): 0.485
viability ([10]; 0.024 µM): 0.564
viability ([10]; 0.12 µM): 0.457
viability ([10]; 0.6 µM): 0.465
viability ([10]; 3 µM): 0.551
viability ([10]; 15 µM): 0.878
viability ([11]; 0.024 µM): 0.956
viability ([11]; 0.12 µM): 0.552
viability ([11]; 0.6 µM): 0.512
viability ([11]; 3 µM): 0.379
viability ([11]; 15 µM): 0.311
viability ([12]; 0.024 µM): 0.945
viability ([12]; 0.12 µM): 0.865
viability ([12]; 0.6 µM): 0.9
viability ([12]; 3 µM): 0.675
viability ([12]; 15 µM): 0.986
viability ([13]; 0.024 µM): 0.983
viability ([13]; 0.12 µM): 0.882
viability ([13]; 0.6 µM): 0.54
viability ([13]; 3 µM): 0.368
viability ([13]; 15 µM): 0.285
viability ([14]; 0.024 µM): 1.26
viability ([14]; 0.12 µM): 0.887
viability ([14]; 0.6 µM): 0.735
viability ([14]; 3 µM): 0.626
viability ([14]; 15 µM): 0.469
